pEC50, pIC50: −log10 of the molar value. Converted amounts (≈) assume the structure as drawn. “And” between values parts separate entries of the source, which are not always exact repeats. Equal values may be shown once. Read-outs that look alike come from different tables or passages of the source.
Key:
[1] = system: SARS-CoV-2, isolate USA-WA1/2020; assay: microbe, parasite or virus in culture; type: cell-based; details: for perc_max_measured: maximum measured response of dose series; for perc_min_measured: minimum measured response of dose series
[2] = system: HeLa-ACE2 cells; details: protocol HeLa-ACE2 cytotoxicity; for perc_max_measured: highest measured response of the dose series; for perc_min_measured: lowest measured response of the dose series
[3] = LogD; details: pH 7.4
[4] = In vitro kinetic solubility
[5] = in vitro; set-up: Cytotoxicity in iPSC-derived pneumocytes, CC50; details: human, ipsc-derived pneumocytes, read-out: 50.0
From the text: Finally, we consider the hypothesis that interferon response triggers ADP-ribosylation, thus profiling the compounds in enhanced and physiologically relevant interferon environments could reveal detectable antiviral effects. […] Furthermore, HeLa-ACE2 cells, and all cancerous cell lines, display defective innate immune response ([1]). As such, we also assess our compound in a primary-like iPSC-derived pneumocyte system (Figure 7C), showing likewise a lack of antiviral activity in this physiologically relevant innate immunity system.

[6] = Hepatic microsomal stability, MLM; type: in vitro ADME
[7] = system: Vero 76
[8] = system: MERS-CoV; type: cell-based; details: Vero 76 MERS-CoV antiviral effect
[9] = system: iPSC pneumocytes; assay: iPSC pneumocytes cytotoxicity; type: cell-based; details: for perc_max_measured: highest measured response of the dose series; for perc_min_measured: lowest measured response of the dose series
From the text: (§1) Supplement media-1.zip/Cytotoxicity.csv, table | column: cc10; cc50; perc_min_measured; perc_max_measured

[10] = in vitro; details: human, hela-ace2 cells, 50.0
[11] = system: SARS-CoV-2; assay: Antiviral effect in iPSC-derived pneumocyte system; type: cell-based; details: iPSC pneumocytes SARS-CoV-2 antiviral effect; for perc_max_measured: maximum measured response of dose series; for perc_min_measured: minimum measured response of dose series
[12] = Permeability Papp (AB) MDR1/MDCKII; details: In vitro MDR1-MDCKII permeability; for papp_a_to_b_mean: A to B; for perc_recovery_a_to_b_mean: recovery A to B
[13] = Hepatic microsomal stability, HLM; type: in vitro ADME, human; details: In vitro human liver microsomal stability; for perc_remaining_no_cofactor: no cofactor; for microsomal CLint: liver microsomes
[14] = in vitro; details: human
[15] = iPSC pneumocytes cytotoxicity; type: cell-based; details: protocol iPSC pneumocytes cytotoxicity
From the text: as §1

[16] = molecular target: SARS-CoV-2 nsp3-mac1 (Severe acute respiratory syndrome coronavirus 2, UniProt P0DTD1); assay: biochemical
[17] = system: MDR1; assay: Permeability Papp (AB) MDR1/MDCKII; details: dog, MDCK-MDR1, papp_a_to_b_mean, In vitro MDR1-MDCKII permeability, A to B
[18] = HeLa-ACE2 SARS-CoV-2 antiviral effect without P-gp inhibitor
[19] = HeLa-ACE2 SARS-CoV-2 antiviral effect without P-gp inhibitor, read-out: ec50
[20] = HeLa-ACE2 SARS-CoV-2 antiviral effect without P-gp inhibitor, read-out: ec90
[21] = In vitro kinetic solubility, ph 7.4
[22] = In vitro mouse liver microsomal stability
[23] = In vitro mouse liver microsomal stability, no cofactor
[24] = Severe acute respiratory syndrome coronavirus 2, HeLa-ACE2 SARS-CoV-2 antiviral effect without P-gp inhibitor, read-out: ec50
[25] = Severe acute respiratory syndrome coronavirus 2, HeLa-ACE2 SARS-CoV-2 antiviral effect without P-gp inhibitor, read-out: ec90
[26] = protocol iPSC pneumocytes cytotoxicity
[27] = Severe acute respiratory syndrome coronavirus 2
[28] = IC50, nsp3-mac1 activity, Figures 1-3 and text
[29] = Severe acute respiratory syndrome coronavirus 2, HeLa-ACE2

Row | Structure (SMILES) | perc_max_measured [1, 18] | perc_min_measured [1, 18] | pEC50 [1, 19] | EC90 [1, 20] | CC50 [2] | cc10 [2] | perc_max_measured [2] | perc_min_measured [2] | logd ([3]; In vitro LogD) | solubility_mean [4, 21] | clint [6, 22] | perc_remaining [6, 22] | t_half [6, 22] | perc_remaining_no_cofactor [6, 23] | perc_max_measured [11] | perc_min_measured [11] | perc_recovery_a_to_b_mean ([12]; mean) | perc_remaining [13] | t_half [13] | perc_remaining_no_cofactor [13] | also measured
1 | CNC(=O)c1c[nH]c2ncnc(N[C@H](c3ccc4c(c3)S(=O)(=O)CCC4)C(C)C)c12 (single isomer, unassigned) [ASAP-0011153] | 109.331% | 66.391% | < 4.70 | > 20 µM | > 20 µM | > 20.0 µM | 96.782% | 85.977% | 2.7 | 336 µM (≈ 144 µg/mL) | 770.0 µL/min/mg | 0.0% | 2.2 min | 99.0% | 88.736% | 31.934% | 92.7% | 1.0% | 6.5 min | 94.0% | CC50 ([5]; ASAP-0008327-001=ASAP-0011153-001): > 50 µM; CC50 [7]: > 32 µM; pEC50 [8]: < 4.49; CC50 [9]: > 50 µM; cc10 [9]: > 50.0 µM; perc_max_measured [9]: 111.957%; perc_min_measured [9]: 100.111%; CC50 at 24 h [10]: > 20 µM; pEC50 [11]: 5.17; EC90 [11]: > 50 µM; papp_a_to_b_mean ([12]; mean): 1.61 ×10⁻⁶ cm/s; clint [13]: 258.0 µL/min/mg
2 | CC(C)C(Nc1ncnc2[nH]ccc12)c1ccc2c(c1)NC(=O)CO2 (stereo not shown) [ASAP-0008302] | 123.573% | 69.199% |  |  |  | > 50.0 µM | 107.359% | 95.445% |  |  |  |  |  |  | 145.289% | 92.172% |  |  |  |  | CC50 [14]: > 50 µM; pEC50 [1, 24]: < 4.30; EC90 [1, 25]: > 50 µM; CC50 [15]: > 50 µM; cc10 [9, 26]: > 50.0 µM; perc_max_measured [9, 26]: 98.455%; perc_min_measured [9, 26]: 82.288%; pEC50 ([11]; Severe acute respiratory syndrome coronavirus 2, iPSC): < 4.30; EC90 [11, 27]: > 50 µM; pIC50 [16, 28]: 6.15
3 | CCNC(=O)c1cc2c(NC(c3ccc4c(c3)OCCO4)C(C)C)ncnc2[nH]1 (stereo not shown) [ASAP-0008444] | 122.873% and 94.861% | 70.184% and 54.623% |  |  |  |  | 101.322% and 84.588% | 64.265% and 70.325% |  |  |  | 24.0% | 19.0 min |  | 136.848% | 15.577% | 85.8% | 21.0% | 19.7 min | 103.0% | CC50 [14]: > 20 µM; pEC50 [1, 29]: < 4.70; EC90 [1, 29]: > 20 µM; logd [3]: 3; solubility ([4]; pH 7.4): 72 µM (≈ 28.5 µg/mL); perc_remaining_no_cofactor ([6]; In vitro mouse liver microsomal stability; no cofactor): 109.0%; microsomal CLint ([6]; liver microsomes; In vitro mouse liver microsomal stability): 88 µL/min/mg; perc_max_measured [9, 26]: 91.985%; perc_min_measured [9, 26]: 70.899%; pEC50 [11, 27]: 4.39; EC90 [11, 27]: > 50 µM; Papp A→B ([17]; mean): 2.41 ×10⁻⁶ cm/s; microsomal CLint [13]: 85 µL/min/mg; pIC50 [16, 28]: 6.62; increase in potency relative to the starting point ([16]; relative to ASAP-000450): 10 x
4 | CC(C)(C)[C@@H](Nc1ncnc2[nH]c(-c3cnn(CC(N)=O)c3)cc12)c1ccc2c(n1)OCCO2 [ASAP-0011162] | 115.43% | 93.464% | < 4.70 | > 20 µM | > 20 µM | > 20.0 µM | 99.27% | 66.005% | 2.9 | 390 µM (≈ 180 µg/mL) | 30.0 µL/min/mg | 59.0% | 56.2 min | 109.0% | 91.919% | 11.328% | 75.9% | 49.0% | 39.8 min | 107.0% | CC50 ([5]; ASAP-0008327-001=ASAP-0011162-001): > 50 µM; CC50 [9]: > 50 µM; cc10 [9]: > 50.0 µM; perc_max_measured [9]: 104.975%; perc_min_measured [9]: 91.59%; CC50 at 24 h [10]: > 20 µM; pEC50 [11]: 4.94; EC90 [11]: > 50 µM; papp_a_to_b_mean ([12]; mean): 1.53 ×10⁻⁶ cm/s; clint [13]: 42.0 µL/min/mg
5 | CNCc1cc(-c2cc3c(N[C@@H](c4ccc5c(c4)S(=O)(=O)NCC5)C(C)C)ncnc3[nH]2)co1 [ASAP-0011243] | 99.818% | 81.688% | < 4.70 | > 20 µM | > 20 µM | > 20.0 µM | 96.42% | 81.709% | 1.9 | 372 µM (≈ 179 µg/mL) | 42.0 µL/min/mg | 49.0% | 40.0 min | 95.0% | 102.14% | 30.967% | 76.5% | 47.0% | 35.9 min | 93.0% | CC50 ([5]; ASAP-0008327-001=ASAP-0011243-001): > 50 µM; CC50 [9]: > 50 µM; cc10 [9]: > 50.0 µM; perc_max_measured [9]: 101.3%; perc_min_measured [9]: 90.486%; CC50 at 24 h [10]: > 20 µM; pEC50 [11]: 4.51; EC90 [11]: > 50 µM; papp_a_to_b_mean ([12]; mean): 1.2 ×10⁻⁶ cm/s; clint [13]: 46.0 µL/min/mg
6 | CCNC(=O)c1cc2c(NC(c3ccc4c(c3)S(=O)(=O)CCC4)C(C)C)ncnc2[nH]1 (stereo not shown) [ASAP-0012349] | 108.517% | 90.612% |  |  |  | > 20.0 µM | 99.328% | 84.17% |  |  |  | 43.0% | 30.8 min | 114.0% |  |  |  | 0.0% | 1.9 min | 102.0% | CC50 [14]: > 20 µM; pEC50 [1, 24]: < 4.70; EC90 [1, 25]: > 20 µM; logd ([3]; pH 7.4, logd, In vitro LogD): 2.8; solubility ([4]; pH 7.4, solubility_mean, In vitro kinetic solubility, ph 7.4): 316 µM (≈ 140 µg/mL); microsomal CLint ([6]; mouse, liver microsomes, In vitro mouse liver microsomal stability): 54 µL/min/mg; Papp A→B ([17]; no inhibitor): 0.532 ×10⁻⁶ cm/s; perc_recovery_a_to_b_mean ([12]; no inhibitor): 66.9%; microsomal CLint ([13]; human): 892 µL/min/mg; pIC50 ([16]; HTRF IC50, Figure 4B, bioactive pure enantiomer): 7.51
